Laboratory results: patent US20180360924A1, “TELOMERE EXTENSION AND ANTI-INFLAMMATORY AGENTS FOR CELL REGENERATION” (THE METHODIST HOSPITAL SYSTEM, priority 2015, published 2018)

Tested on: Human chondrocytes
Assay: Telomere length in chondrocytes, relative quantification for the telomeric repeat (T/S-ratio)
Assay type: cell-based
Details: LFA transfection, n=3, P65i high

RelA/NFkB p65 [pSer529, pSer536] inhibitor peptide [P65i]
% increase in TL: 4.0%
T/S-ratio: 1.01
